Source: PubChem BioAssay AID2060328 (Molecular Pharmacology Branch, DTP, NCI, 2025)

System: MDA-MB-231 multicell spheroids, viability (%T/C)
Assay: Anticancer human tumor MDA-MB-231 cell line growth inhibition [IpAb];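 further: viability read after seven days of drug exposure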;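 on viability, T/C: 100% = DMSO vehicle control viability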
Details: for IC50: curve of first compound; for viability, T/C: stronger effect = lower value
Outline: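 Multi-cell spheroids of 60% tumour cells, 25% HUVEC and 15% MSC in ultra-low-attachment U-bottom wells, treated with agents combined with ipatasertib or abemaciclib. Half-log ranges top out near clinical Cmax, or 10 microM when Cmax is unknown.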

[1] = second compound 0.1 µM, first compound 0.0316 µM
[2] = second compound 0.1 µM, first compound 0.1 µM
[3] = second compound 0.1 µM, first compound 0.316 µM
[4] = second compound 0.1 µM, first compound 1 µM
[5] = second compound 0.316 µM, first compound 0.0316 µM
[6] = second compound 0.316 µM, first compound 0.1 µM
[7] = second compound 0.316 µM, first compound 0.316 µM
[8] = second compound 0.316 µM, first compound 1 µM
[9] = second compound 1 µM, first compound 0.0316 µM
[10] = second compound 1 µM, first compound 0.1 µM
[11] = second compound 1 µM, first compound 0.316 µM
[12] = second compound 1 µM, first compound 1 µM
[13] = second compound 3.16 µM, first compound 0.0316 µM
[14] = second compound 3.16 µM, first compound 0.1 µM
[15] = second compound 10 µM, first compound 0.0316 µM
[16] = second compound 10 µM, first compound 0.1 µM
[17] = second compound 0.1 µM, first compound 0.00316 µM
[18] = second compound 0.1 µM, first compound 0.01 µM
[19] = second compound 0.316 µM, first compound 0.00316 µM
[20] = second compound 0.316 µM, first compound 0.01 µM
[21] = second compound 1 µM, first compound 0.00316 µM
[22] = second compound 1 µM, first compound 0.01 µM

Question: Which results are given for CCCS(=O)(=O)Nc1ccc(F)c(C(=O)c2c[nH]c3ncc(-c4ccc(Cl)cc4)cc23)c1F + CC(C)NCC(C(=O)N1CCN(c2ncnc3c2C(C)CC3O)CC1)c1ccc(Cl)cc1?
Answer: IC50 (second compound 0.1 µM): 8310 nM; IC50 (second compound 0.316 µM): 6040 nM; IC50 (second compound 1 µM): 5310 nM; IC50 (second compound 3.16 µM): 1760 nM; IC50 (second compound 10 µM): < 31.6 nM; viability, T/C [1]: 106%; viability, T/C [2]: 106%; viability, T/C [3]: 104%; viability, T/C [4]: 97.2%; viability, T/C (second compound 0.1 µM, first compound 3.16 µM): 75.4%; viability, T/C (second compound 0.1 µM, first compound 10 µM): 45.1%; viability, T/C [5]: 98.1%; viability, T/C [6]: 95.9%; viability, T/C [7]: 92.2%; viability, T/C [8]: 87.3%; viability, T/C (second compound 0.316 µM, first compound 3.16 µM): 61.2%; viability, T/C (second compound 0.316 µM, first compound 10 µM): 41.1%; viability, T/C [9]: 80.1%; viability, T/C [10]: 84.8%; viability, T/C [11]: 79.8%; viability, T/C [12]: 71.3%; viability, T/C (second compound 1 µM, first compound 3.16 µM): 60.1%; viability, T/C (second compound 1 µM, first compound 10 µM): 38.3%; viability, T/C [13]: 59.3%; viability, T/C [14]: 68.2%; viability, T/C (second compound 3.16 µM, first compound 0.316 µM): 61.7%; viability, T/C (second compound 3.16 µM, first compound 1 µM): 56.7%; viability, T/C (second compound 3.16 µM, first compound 3.16 µM): 42.9%; viability, T/C (second compound 3.16 µM, first compound 10 µM): 30.9%; viability, T/C [15]: 45.4%; viability, T/C [16]: 48.2%; viability, T/C (second compound 10 µM, first compound 0.316 µM): 44.2%; viability, T/C (second compound 10 µM, first compound 1 µM): 36.6%; viability, T/C (second compound 10 µM, first compound 3.16 µM): 35%; viability, T/C (second compound 10 µM, first compound 10 µM): 27.6%

Question: With CC(C)n1nc(-c2ccc3oc(N)nc3c2)c2c(N)ncnc21 + CC(C)NCC(C(=O)N1CCN(c2ncnc3c2C(C)CC3O)CC1)c1ccc(Cl)cc1 as the molecule, how does the IC50 (second compound 0.1 µM) read?
Answer: 15.1 nM

Question: And the IC50 (second compound 0.316 µM)?
Answer: 5.64 nM

Question: What about the IC50 (second compound 1 µM) of the same molecule?
Answer: 2.25 nM

Question: And the IC50 (second compound 3.16 µM)?
Answer: 0.58 nM

Question: And the IC50 (second compound 10 µM)?
Answer: < 0.316 nM

Question: What about the viability, T/C (second compound 0.1 µM, first compound 0.000316 µM) of the same molecule?
Answer: 90.9%

Question: And the viability, T/C (second compound 0.1 µM, first compound 0.001 µM)?
Answer: 84%

Question: What about the viability, T/C [17] of the same molecule?
Answer: 68.6%

Question: What about the viability, T/C [18] of the same molecule?
Answer: 54.5%

Question: What about the viability, T/C [1] of the same molecule?
Answer: 42.5%

Question: And the viability, T/C [2]?
Answer: 40.5%

Question: And the viability, T/C (second compound 0.316 µM, first compound 0.000316 µM)?
Answer: 86.8%

Question: And the viability, T/C (second compound 0.316 µM, first compound 0.001 µM)?
Answer: 69.8%

Question: What about the viability, T/C [19] of the same molecule?
Answer: 56.4%

Question: What about the viability, T/C [20] of the same molecule?
Answer: 43.8%

Question: And the viability, T/C [5]?
Answer: 38.6%

Question: What about the viability, T/C [6] of the same molecule?
Answer: 35.4%

Question: And the viability, T/C (second compound 1 µM, first compound 0.000316 µM)?
Answer: 67.4%

Question: What about the viability, T/C (second compound 1 µM, first compound 0.001 µM) of the same molecule?
Answer: 59%

Question: And the viability, T/C [21]?
Answer: 46.1%

Question: And the viability, T/C [22]?
Answer: 36.5%

Question: And the viability, T/C [9]?
Answer: 31.7%

Question: What about the viability, T/C [10] of the same molecule?
Answer: 29.8%

Question: What about the viability, T/C (second compound 3.16 µM, first compound 0.000316 µM) of the same molecule?
Answer: 53.3%

Question: And the viability, T/C (second compound 3.16 µM, first compound 0.001 µM)?
Answer: 47%

Question: What about the viability, T/C (second compound 3.16 µM, first compound 0.00316 µM) of the same molecule?
Answer: 36.9%

Question: And the viability, T/C (second compound 3.16 µM, first compound 0.01 µM)?
Answer: 28.3%

Question: And the viability, T/C [13]?
Answer: 26.1%

Question: And the viability, T/C [14]?
Answer: 23.3%

Question: And the viability, T/C (second compound 10 µM, first compound 0.000316 µM)?
Answer: 38.3%

Question: What about the viability, T/C (second compound 10 µM, first compound 0.001 µM) of the same molecule?
Answer: 34.2%

Question: What about the viability, T/C (second compound 10 µM, first compound 0.00316 µM) of the same molecule?
Answer: 27.1%

Question: And the viability, T/C (second compound 10 µM, first compound 0.01 µM)?
Answer: 18.1%

Question: And the viability, T/C [15]?
Answer: 15.2%

Question: What about the viability, T/C [16] of the same molecule?
Answer: 14.6%

Question: How did the IC50 (second compound 0.01 µM) turn out when COc1c(OCCCN2CCOCC2)ccc2c3n(c(=NC(=O)c4cnc(N)nc4)nc12)CCN3 + CCN1CCN(Cc2ccc(Nc3ncc(F)c(-c4cc(F)c5nc(C)n(C(C)C)c5c4)n3)nc2)CC1 was run?
Answer: 24 nM

Question: What about the IC50 (second compound 0.0316 µM) of the same molecule?
Answer: 14.6 nM

Question: And the IC50 (second compound 0.1 µM)?
Answer: 4.68 nM

Question: What about the IC50 (second compound 0.316 µM) of the same molecule?
Answer: < 3.16 nM

Question: And the IC50 (second compound 1 µM)?
Answer: < 3.16 nM

Question: And the viability, T/C (second compound 0.01 µM, first compound 0.00316 µM)?
Answer: 81.7%

Question: And the viability, T/C (second compound 0.01 µM, first compound 0.01 µM)?
Answer: 59%

Question: What about the viability, T/C (second compound 0.01 µM, first compound 0.0316 µM) of the same molecule?
Answer: 50.2%

Question: And the viability, T/C (second compound 0.01 µM, first compound 0.1 µM)?
Answer: 37.7%

Question: What about the viability, T/C (second compound 0.01 µM, first compound 0.316 µM) of the same molecule?
Answer: 31.7%

Question: What about the viability, T/C (second compound 0.01 µM, first compound 1 µM) of the same molecule?
Answer: 37.7%

Question: And the viability, T/C (second compound 0.0316 µM, first compound 0.00316 µM)?
Answer: 65.5%

Question: And the viability, T/C (second compound 0.0316 µM, first compound 0.01 µM)?
Answer: 53.1%

Question: What about the viability, T/C (second compound 0.0316 µM, first compound 0.0316 µM) of the same molecule?
Answer: 43.9%

Question: And the viability, T/C (second compound 0.0316 µM, first compound 0.1 µM)?
Answer: 34.1%

Question: What about the viability, T/C (second compound 0.0316 µM, first compound 0.316 µM) of the same molecule?
Answer: 29.7%

Question: What about the viability, T/C (second compound 0.0316 µM, first compound 1 µM) of the same molecule?
Answer: 38.5%

Question: What about the viability, T/C [17] of the same molecule?
Answer: 53.7%

Question: What about the viability, T/C [18] of the same molecule?
Answer: 44.2%

Question: What about the viability, T/C [1] of the same molecule?
Answer: 36.6%

Question: What about the viability, T/C [2] of the same molecule?
Answer: 31.1%

Question: And the viability, T/C [3]?
Answer: 29.1%

Question: And the viability, T/C [4]?
Answer: 43.4%

Question: What about the viability, T/C [19] of the same molecule?
Answer: 46.4%

Question: And the viability, T/C [20]?
Answer: 41.6%

Question: What about the viability, T/C [5] of the same molecule?
Answer: 35.2%

Question: What about the viability, T/C [6] of the same molecule?
Answer: 31.7%

Question: What about the viability, T/C [7] of the same molecule?
Answer: 34.4%

Question: And the viability, T/C [8]?
Answer: 67.5%

Question: And the viability, T/C [21]?
Answer: 53%

Question: What about the viability, T/C [22] of the same molecule?
Answer: 48.6%

Question: And the viability, T/C [9]?
Answer: 46.8%

Question: What about the viability, T/C [10] of the same molecule?
Answer: 44.8%

Question: And the viability, T/C [11]?
Answer: 55.1%

Question: What about the viability, T/C [12] of the same molecule?
Answer: 128%
